Measurements: ChEMBL document CHEMBL1201862, “PubChem BioAssay data set” (2004)
Active and inactive are the calls of the source. Cut-off read from the data, not from the text of the source, for most assays here: actives have a measured EC50 and inactives only a lower limit.

What was measured:
[1] = biological target: T1, Corticotropin-releasing factor receptor 2/Corticotropin-releasing factor-binding protein (Homo sapiens, UniProt P24387+Q13324); assay: activators of CRF receptor 2 with binding protein – uHTS hits, confirmation (AID 602473); type: functional; settings: read-out: EC50_Mean
T1 sequence (Q13324 whole entry): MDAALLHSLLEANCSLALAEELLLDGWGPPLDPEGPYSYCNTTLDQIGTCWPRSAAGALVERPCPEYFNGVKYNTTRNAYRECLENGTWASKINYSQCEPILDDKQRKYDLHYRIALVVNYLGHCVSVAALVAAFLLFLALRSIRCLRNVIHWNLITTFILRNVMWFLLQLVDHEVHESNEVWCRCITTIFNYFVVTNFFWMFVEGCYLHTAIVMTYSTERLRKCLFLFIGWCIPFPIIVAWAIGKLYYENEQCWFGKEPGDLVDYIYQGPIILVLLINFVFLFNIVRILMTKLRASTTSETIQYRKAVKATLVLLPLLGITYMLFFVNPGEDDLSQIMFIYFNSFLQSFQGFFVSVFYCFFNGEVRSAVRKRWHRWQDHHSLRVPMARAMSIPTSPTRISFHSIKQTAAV
T1 sequence (P24387 whole entry): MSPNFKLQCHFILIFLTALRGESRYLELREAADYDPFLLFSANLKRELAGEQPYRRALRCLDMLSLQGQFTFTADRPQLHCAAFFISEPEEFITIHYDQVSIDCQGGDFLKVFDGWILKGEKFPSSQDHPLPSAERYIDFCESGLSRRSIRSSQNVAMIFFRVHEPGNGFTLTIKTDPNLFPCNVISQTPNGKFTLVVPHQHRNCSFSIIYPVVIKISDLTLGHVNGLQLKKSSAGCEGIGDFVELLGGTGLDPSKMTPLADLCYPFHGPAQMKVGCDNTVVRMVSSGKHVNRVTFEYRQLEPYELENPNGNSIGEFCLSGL

[2] = biological target: T1, Corticotropin-releasing factor receptor 2/Corticotropin-releasing factor-binding protein; assay: Dose Response confirmation of uHTS hits for small molecule antagonists of the CRF-binding protein and CRF-R2 receptor complex.; type: functional; settings: read-out: IC50_Mean
[3] = biological target: T2, Rac GTPase-activating protein 1 (Homo sapiens, UniProt Q9H0H5); assay: MgcRacGAP GTPase-activating activity inhibitors, confirmation, biochemical, ADP Hunter fluorescence, primary and confirmatory (AID 624330); type: functional
T2 sequence (Q9H0H5 whole entry): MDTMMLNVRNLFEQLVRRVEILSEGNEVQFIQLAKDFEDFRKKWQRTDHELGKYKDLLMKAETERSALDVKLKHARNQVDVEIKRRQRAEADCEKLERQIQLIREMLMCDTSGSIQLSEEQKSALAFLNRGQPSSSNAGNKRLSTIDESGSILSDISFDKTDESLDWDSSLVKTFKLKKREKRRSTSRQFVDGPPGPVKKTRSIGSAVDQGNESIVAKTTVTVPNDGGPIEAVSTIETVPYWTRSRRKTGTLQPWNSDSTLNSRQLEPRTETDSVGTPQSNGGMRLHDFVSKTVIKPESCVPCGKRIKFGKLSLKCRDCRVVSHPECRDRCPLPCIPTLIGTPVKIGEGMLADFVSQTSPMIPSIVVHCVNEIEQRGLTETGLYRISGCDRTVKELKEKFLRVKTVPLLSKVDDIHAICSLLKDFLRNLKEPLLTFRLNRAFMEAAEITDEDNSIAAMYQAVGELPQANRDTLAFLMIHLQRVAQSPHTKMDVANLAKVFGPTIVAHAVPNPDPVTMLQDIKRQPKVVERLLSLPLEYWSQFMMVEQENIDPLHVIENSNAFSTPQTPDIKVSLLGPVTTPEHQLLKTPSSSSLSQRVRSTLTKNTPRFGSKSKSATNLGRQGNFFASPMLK

Paired box protein Pax-8 = Paired box protein Pax-8 (Homo sapiens, UniProt Q06710); assay: inhibitors of PAX8-driven TPO luciferase reporter, dose response, RMG-I cells, cherry-pick (AID 687027); type: functional, cell-based;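 note: luciferase reporter driven by Pax8 target thyroperoxidase promoter measured by SteadyGlo luminescence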
Sequence of Paired box protein Pax-8 (Q06710 whole entry): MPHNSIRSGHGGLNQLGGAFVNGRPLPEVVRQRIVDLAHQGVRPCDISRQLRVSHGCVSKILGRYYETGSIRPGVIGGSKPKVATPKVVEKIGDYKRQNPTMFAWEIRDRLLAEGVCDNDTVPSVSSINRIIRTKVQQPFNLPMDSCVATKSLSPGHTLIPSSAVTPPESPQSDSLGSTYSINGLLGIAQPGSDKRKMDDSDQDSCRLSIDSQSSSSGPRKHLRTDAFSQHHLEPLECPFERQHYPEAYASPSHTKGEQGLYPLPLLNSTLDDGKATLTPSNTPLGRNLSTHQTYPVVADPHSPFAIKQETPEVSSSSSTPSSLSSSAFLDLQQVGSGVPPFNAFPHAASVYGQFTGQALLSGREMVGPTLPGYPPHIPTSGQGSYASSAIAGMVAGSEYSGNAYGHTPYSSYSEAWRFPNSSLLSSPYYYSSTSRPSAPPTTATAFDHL

BJ [4] = assay: cytotoxicity toward BJ-TERT fibroblasts, dose response, cell-based, RAS-independent, luminescence (AID 1933); type: functional; settings: Homo sapiens
BJ [5] = assay: cytotoxicity toward BJ-TERT-LT-ST fibroblasts, dose response, cell-based, RAS-independent, luminescence (AID 1935); type: functional; settings: Homo sapiens;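 note: BJ fibroblasts immortalized with TERT plus LT and ST oncogenes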
[6] = cytotoxicity toward DRD oncogenic fibroblasts, dose response, cell-based, non-viral oncogenic, luminescence (AID 1934); type: functional; settings: Homo sapiens
BJ [7] = assay: cells; type: functional, cell-based; settings: Homo sapiens
cells [8] = type: functional, cell-based
cells [9] = type: functional, cell-based; remark: listed apart in the source
Cytochrome P450 2D6 = Cytochrome P450 2D6 (Homo sapiens, UniProt P10635);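 note: CYP2D6 member of a cytochrome P450 panel assay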
Sequence of Cytochrome P450 2D6 (P10635 whole entry): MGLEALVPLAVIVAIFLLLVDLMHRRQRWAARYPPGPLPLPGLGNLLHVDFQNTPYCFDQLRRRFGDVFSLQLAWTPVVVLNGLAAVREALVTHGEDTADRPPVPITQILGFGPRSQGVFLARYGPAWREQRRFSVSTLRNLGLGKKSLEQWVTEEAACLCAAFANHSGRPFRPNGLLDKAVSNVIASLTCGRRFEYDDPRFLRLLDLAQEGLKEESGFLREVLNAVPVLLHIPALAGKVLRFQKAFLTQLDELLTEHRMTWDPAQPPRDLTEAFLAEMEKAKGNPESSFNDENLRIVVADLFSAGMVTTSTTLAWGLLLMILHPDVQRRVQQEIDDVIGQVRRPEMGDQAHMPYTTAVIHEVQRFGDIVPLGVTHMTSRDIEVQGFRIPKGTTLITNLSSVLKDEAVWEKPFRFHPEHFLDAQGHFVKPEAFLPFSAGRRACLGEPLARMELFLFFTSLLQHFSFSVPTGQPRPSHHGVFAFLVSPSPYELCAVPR

Row | SMILES | EC50 [1] | IC50 [2] | IC50 [3] | further results
1 | Cc1noc(/C=C/c2ccco2)c1S(=O)(=O)N1CCC(C(=O)NC(C)c2ccccc2)CC1 (stereo unspecified) |  |  |  | AC50 (Paired box protein Pax-8): 0.931 µM (active)
2 | N#CC1=C(S)N(c2ccccc2)C(c2ccc(-c3ccccc3Cl)o2)NC1=O (stereo unspecified) |  |  | 99.8 µM (active) | 
3 | Cc1occc1C(=O)NC(C)C12CC3CC(CC(C3)C1)C2 (stereo unspecified) | > 53 µM (inactive) | > 47.1 µM (inactive) |  | 
4 | C[C@H](CO)N1C[C@H](C)[C@H](CN(C)Cc2ccc3c(c2)OCO3)Oc2ccc(NC(=O)Nc3cccc4ccccc34)cc2C1=O |  |  |  | AC50 (Paired box protein Pax-8): 26.5 µM (active)
5 | CN(NC(=O)c1ccccc1F)c1nc(C(F)(F)F)nc2ccccc12 |  |  |  | EC50 (BJ [4]): 0.667 µM (inconclusive); EC50 (BJ [5]): 0.428 µM (inconclusive); EC50 [6]: 0.628 µM (active); EC50 (BJ [7]): 0.813 µM (active)
6 | CCOc1cc(/C=N/NC(=O)C(OC)c2ccccc2)ccc1O (stereo unspecified) |  |  | 54.9 µM (active) | 
7 | c1ccc(CNC23CC4CC(CC(C4)C2)C3)nc1 |  |  | 110 µM (active) | 
8 | O=C1ON=C(c2ccccc2)/C1=C/c1ccco1 |  |  | 91 µM (active) | 
9 | CC(=O)CC(=O)Nc1ccc(Nc2ccccc2)cc1 |  |  | 178 µM (active) | 
10 | CC(=O)/C(C#N)=C1\NC(=O)C(Cc2cc(Cl)ccc2Cl)S1 (stereo unspecified) |  |  |  | EC50 (BJ [4]): > 150 µM (not active); EC50 (BJ [5]): > 150 µM (not active); EC50 [6]: 76.8 µM (active); EC50 (BJ [7]): 61.2 µM (active)
11 | CSc1ccc(S(=O)(=O)NCC(=O)OCC(=O)N(Cc2ccccc2)C(C)C)cc1[N+](=O)[O-] | > 53 µM (inactive) | > 47.1 µM (inactive) |  | 
12 | CCCCn1c(N)c(N(CC)C(=O)c2cc(OC)cc(OC)c2)c(=O)[nH]c1=O |  |  |  | EC50 (cells [8]): > 350 µM (not active); EC50 (cells [9]): > 350 µM (not active)
13 | COc1cccc(OC)c1OCCCN1CCOCC1 |  |  | 162 µM (active) | AC50 (Cytochrome P450 2D6): 39.8 µM (inconclusive)
14 | S=C(N/N=C/c1cccc2ccccc12)Nc1cccc(Cl)c1 |  |  |  | EC50 (cells [8]): > 350 µM (not active); EC50 (cells [9]): > 350 µM (not active)
15 | COc1ccccc1NC(=O)C1CCN(C(=O)c2ccc(C(C)(C)C)cc2)CC1 |  |  |  | EC50 (cells [8]): > 350 µM (not active); EC50 (cells [9]): > 350 µM (not active)
16 | CC(/C=N/Nc1nc(C)cc(C)n1)=C\c1ccc(C(C)C)cc1 | > 53 µM (inactive) | > 47.1 µM (inactive) |  | 
17 | CCCCC1=CC2=C(c3ccco3)C(=O)C(C)(OC(=O)c3ccc(OC)cc3)C(=O)C2=CN1c1ccc(OC)cc1 (stereo unspecified) |  |  |  | EC50 (BJ [4]): 47.1 µM (active); EC50 (BJ [5]): > 150 µM (inconclusive); EC50 [6]: > 150 µM (not active); EC50 (BJ [7]): > 150 µM (not active)
18 | COc1cc(/C=N/N2C(=O)c3ccccc3C2=O)ccc1O |  |  | 50.2 µM (active) | 
19 | O=C(CSc1ccc(-c2ccccn2)nn1)Nc1nccs1 |  |  |  | EC50 (cells [8]): > 350 µM (not active); EC50 (cells [9]): > 350 µM (not active)
20 | Cc1cccnc1NC(=O)C(C)Oc1ccccc1 (stereo unspecified) | > 53 µM (inactive) | > 47.1 µM (inactive) |  | 

Further lines, with some results ahead:

Row | EC50 [1] | IC50 [2] | IC50 [3] | SMILES | further results
21 | > 53 µM (inactive) | > 47.1 µM (inactive) |  | Cn1c(SCC(=O)N2CCCc3ccccc32)nc2cccnc21 | 
22 |  |  | 161 µM (active) | COc1ccc(NC2CCCN(C(=O)c3ccc(C)nc3)C2)cc1 (stereo unspecified) | 
23 |  |  | 93 µM (active) | Cc1ccc(C)c(S(=O)(=O)N2CCN(CC(=O)N3CCc4ccccc4C3)CC2)c1 | 
24 | > 53 µM (inactive) | > 47.1 µM (inactive) |  | COc1ccccc1S(=O)(=O)Cc1ccc(C(=O)NCc2ccccc2)o1 | 
25 | > 53 µM (inactive) | > 47.1 µM (inactive) |  | CCc1ccc(Nc2nnc(SC(C)C(=O)NC3CC3)s2)cc1 (stereo unspecified) | 
26 | > 53 µM (inactive) | > 47.1 µM (inactive) |  | COc1ccc(CNC(=O)[C@H](C)NC(=O)C2CCN(S(=O)(=O)c3ccc(F)cc3)CC2)cc1 | 
27 |  |  | 152 µM (active) | CSCc1ccc(C(=O)N2CCCC(Nc3ccc4c(c3)OCCO4)C2)o1 (stereo unspecified) | 
28 | > 53 µM (inactive) | > 47.1 µM (inactive) |  | O=C(CN1c2cccc3cccc(c23)S1(=O)=O)NC1CCCCC1 | 
